Experimental data taken from publication PMC4664946, “The standalone aminopeptidase PepN catalyzes the maturation of blasticidin S from leucylblasticidin S” (Scientific Reports, 2015).

Key:
PepN1 = biological target: T1, PepN1 (Streptomyces lividans, UniProt Q11010); assay: HPLC (UV […] nm) of hydrolysis to blasticidin S; format: biochemical; conditions: pH 5 to 9 tested; 30 °C; hydrolysis of the beta-amide bond to leucine
T1 construct: gene pepN; closely located to PepN2 gene
T1 sequence (Q11010 1-857): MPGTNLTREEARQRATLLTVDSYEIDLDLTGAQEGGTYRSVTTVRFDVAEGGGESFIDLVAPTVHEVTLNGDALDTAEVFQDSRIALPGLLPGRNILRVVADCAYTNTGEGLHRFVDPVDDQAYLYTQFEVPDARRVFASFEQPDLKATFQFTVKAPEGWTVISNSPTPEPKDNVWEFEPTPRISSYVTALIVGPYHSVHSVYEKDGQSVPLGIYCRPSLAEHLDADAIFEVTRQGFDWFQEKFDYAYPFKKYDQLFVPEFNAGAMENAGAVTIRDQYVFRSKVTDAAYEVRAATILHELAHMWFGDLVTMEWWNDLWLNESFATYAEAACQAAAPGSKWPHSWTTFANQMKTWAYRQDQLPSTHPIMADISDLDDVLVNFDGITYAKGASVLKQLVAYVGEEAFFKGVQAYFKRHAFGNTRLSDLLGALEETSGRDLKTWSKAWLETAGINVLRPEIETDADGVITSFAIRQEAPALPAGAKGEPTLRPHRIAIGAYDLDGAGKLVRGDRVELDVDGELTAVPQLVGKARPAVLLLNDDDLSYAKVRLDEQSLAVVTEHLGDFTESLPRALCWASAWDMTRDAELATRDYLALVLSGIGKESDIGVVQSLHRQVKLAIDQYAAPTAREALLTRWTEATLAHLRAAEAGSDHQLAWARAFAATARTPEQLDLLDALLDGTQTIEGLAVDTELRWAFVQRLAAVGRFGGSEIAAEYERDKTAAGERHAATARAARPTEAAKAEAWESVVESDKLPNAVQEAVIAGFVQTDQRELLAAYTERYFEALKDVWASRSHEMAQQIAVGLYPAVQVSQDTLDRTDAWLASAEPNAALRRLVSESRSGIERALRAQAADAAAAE

PepN = biological target: T2, PepN (Escherichia coli, UniProt P04825); assay: HPLC (UV […] nm) of hydrolysis to blasticidin S; format: biochemical; conditions: 30 °C; 1 μM LBS overnight; pH 5 to 9 tested
T2 sequence (P04825 2-870): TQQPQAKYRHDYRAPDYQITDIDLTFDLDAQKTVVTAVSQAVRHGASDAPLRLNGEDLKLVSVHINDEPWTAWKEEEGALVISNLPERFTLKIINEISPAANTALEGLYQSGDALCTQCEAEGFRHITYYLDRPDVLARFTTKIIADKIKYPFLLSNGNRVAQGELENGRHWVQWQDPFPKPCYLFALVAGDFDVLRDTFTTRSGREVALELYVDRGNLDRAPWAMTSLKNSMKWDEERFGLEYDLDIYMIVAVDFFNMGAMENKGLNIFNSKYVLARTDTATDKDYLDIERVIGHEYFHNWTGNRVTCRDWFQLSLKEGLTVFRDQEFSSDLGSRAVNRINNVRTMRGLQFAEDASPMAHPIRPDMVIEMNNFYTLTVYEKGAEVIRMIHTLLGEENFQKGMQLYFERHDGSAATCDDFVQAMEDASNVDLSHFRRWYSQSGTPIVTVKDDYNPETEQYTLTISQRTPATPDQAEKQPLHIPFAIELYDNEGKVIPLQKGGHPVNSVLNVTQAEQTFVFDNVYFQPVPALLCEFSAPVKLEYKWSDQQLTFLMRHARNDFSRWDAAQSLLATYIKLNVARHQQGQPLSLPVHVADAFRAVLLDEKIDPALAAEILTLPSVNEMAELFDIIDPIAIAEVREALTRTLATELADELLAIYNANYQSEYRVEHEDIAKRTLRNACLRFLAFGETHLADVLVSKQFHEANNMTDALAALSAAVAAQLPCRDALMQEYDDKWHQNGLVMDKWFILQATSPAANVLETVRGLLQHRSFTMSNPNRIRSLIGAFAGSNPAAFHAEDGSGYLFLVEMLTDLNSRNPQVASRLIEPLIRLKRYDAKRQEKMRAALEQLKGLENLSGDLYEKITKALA

CC(C)C[C@H](N)C(=O)N[C@@H](CCN(C)C(=N)N)CC(=O)N[C@H]1C=C[C@H](n2ccc(N)nc2=O)O[C@@H]1C(=O)O [LBS, leucylblasticidin S]
HPLC (UV 272 nm) of hydrolysis to blasticidin S (PepN1): PepN and PepN1 exhibited similar LBS hydrolyzing efficiency
HPLC (UV 272 nm) of hydrolysis to blasticidin S (PepN): PepN and PepN1 exhibited similar LBS hydrolyzing efficiency
